Data as given in PubChem BioAssay AID1259407 (Chemical Carcinogenesis Research Information System (CCRIS), 2018).
Activity calls are given as the source filed them. How the calls were made is not given here.

Tested on: CCRIS mutagenicity, Ames/micronucleus/aberration tests
Assay: CCRIS mutagenicity studies
[1] = Test System: AMES SALMONELLA TYPHIMURIUM, Strain/Indicator: TA98, Metabolic Activation: NONE, Method: STANDARD PLATE
[2] = Test System: AMES SALMONELLA TYPHIMURIUM, Strain/Indicator: TA100, Metabolic Activation: NONE, Method: STANDARD PLATE
[3] = Test System: AMES SALMONELLA TYPHIMURIUM, Strain/Indicator: TA1535, Metabolic Activation: NONE, Method: STANDARD PLATE
[4] = Test System: AMES SALMONELLA TYPHIMURIUM, Strain/Indicator: TA1537, Metabolic Activation: NONE, Method: STANDARD PLATE
[5] = Test System: AMES SALMONELLA TYPHIMURIUM, Strain/Indicator: TA98, Metabolic Activation: NONE, Method: PREINCUBATION
[6] = Test System: AMES SALMONELLA TYPHIMURIUM, Strain/Indicator: TA100, Metabolic Activation: NONE, Method: PREINCUBATION
[7] = Test System: AMES SALMONELLA TYPHIMURIUM, Strain/Indicator: TA1535, Metabolic Activation: NONE, Method: PREINCUBATION
[8] = Test System: AMES SALMONELLA TYPHIMURIUM, Strain/Indicator: TA98, Metabolic Activation: HAMSTER, LIVER, S-9, AROCLOR 1254 (10%), Method: PREINCUBATION
[9] = Test System: AMES SALMONELLA TYPHIMURIUM, Strain/Indicator: TA98, Metabolic Activation: RAT, LIVER, S-9, AROCLOR 1254 (10%), Method: PREINCUBATION
[10] = Test System: AMES SALMONELLA TYPHIMURIUM, Strain/Indicator: TA100, Metabolic Activation: HAMSTER, LIVER, S-9, AROCLOR 1254 (10%), Method: PREINCUBATION
[11] = Test System: AMES SALMONELLA TYPHIMURIUM, Strain/Indicator: TA100, Metabolic Activation: RAT, LIVER, S-9, AROCLOR 1254 (10%), Method: PREINCUBATION
[12] = Test System: AMES SALMONELLA TYPHIMURIUM, Strain/Indicator: TA1535, Metabolic Activation: HAMSTER, LIVER, S-9, AROCLOR 1254 (10%), Method: PREINCUBATION
[13] = Test System: AMES SALMONELLA TYPHIMURIUM, Strain/Indicator: TA1535, Metabolic Activation: RAT, LIVER, S-9, AROCLOR 1254 (10%), Method: PREINCUBATION
[14] = Test System: AMES SALMONELLA TYPHIMURIUM, Strain/Indicator: TA1537, Metabolic Activation: HAMSTER, LIVER, S-9, AROCLOR 1254 (10%), Method: PREINCUBATION
[15] = Test System: AMES SALMONELLA TYPHIMURIUM, Strain/Indicator: TA1537, Metabolic Activation: NONE, Method: PREINCUBATION
[16] = Test System: AMES SALMONELLA TYPHIMURIUM, Strain/Indicator: TA1537, Metabolic Activation: RAT, LIVER, S-9, AROCLOR 1254 (10%), Method: PREINCUBATION

Measured: mutagenic call

O=P(O)(O)OCC(O)CO (centres undefined)
inactive: [1] inactive; negative | Test System: AMES SALMONELLA TYPHIMURIUM, Strain/Indicator: TA98, Metabolic Activation: RAT, LIVER, S-9, AROCLOR 1254, Method: STANDARD PLATE inactive; negative | [2] inactive; negative | Test System: AMES SALMONELLA TYPHIMURIUM, Strain/Indicator: TA100, Metabolic Activation: RAT, LIVER, S-9, AROCLOR 1254, Method: STANDARD PLATE inactive; negative | [3] inactive; negative | Test System: AMES SALMONELLA TYPHIMURIUM, Strain/Indicator: TA1535, Metabolic Activation: RAT, LIVER, S-9, AROCLOR 1254, Method: STANDARD PLATE inactive; negative | [4] inactive; negative | Test System: AMES SALMONELLA TYPHIMURIUM, Strain/Indicator: TA1537, Metabolic Activation: RAT, LIVER, S-9, AROCLOR 1254, Method: STANDARD PLATE inactive; negative | Test System: AMES SALMONELLA TYPHIMURIUM, Strain/Indicator: TA1538, Metabolic Activation: NONE, Method: STANDARD PLATE inactive; negative | Test System: AMES SALMONELLA TYPHIMURIUM, Strain/Indicator: TA1538, Metabolic Activation: RAT, LIVER, S-9, AROCLOR 1254, Method: STANDARD PLATE inactive; negative | Test System: E. COLI, Strain/Indicator: WP2, Metabolic Activation: NONE, Method: STANDARD PLATE inactive; negative | Test System: E. COLI, Strain/Indicator: WP2, Metabolic Activation: RAT, LIVER, S-9, AROCLOR 1254, Method: STANDARD PLATE inactive; negative

O=C1NC(=O)C2CC=CCC12 (centres undefined)
inactive: Test System: AMES SALMONELLA TYPHIMURIUM, Strain/Indicator: TA102, Metabolic Activation: NONE, Method: STANDARD PLATE inactive; negative | Test System: AMES SALMONELLA TYPHIMURIUM, Strain/Indicator: TA102, Metabolic Activation: RAT, LIVER, S-9, PHENOBARBITAL, Method: STANDARD PLATE inactive; negative | Test System: AMES SALMONELLA TYPHIMURIUM, Strain/Indicator: TA104, Metabolic Activation: NONE, Method: STANDARD PLATE inactive; negative | Test System: AMES SALMONELLA TYPHIMURIUM, Strain/Indicator: TA104, Metabolic Activation: RAT, LIVER, S-9, PHENOBARBITAL, Method: STANDARD PLATE inactive; negative

C[C@]12C/C(=C/O)C(=O)C[C@@H]1CC[C@@H]1[C@@H]2CC[C@@]2(C)[C@H]1CC[C@]2(C)O
inactive: Test System: AMES SALMONELLA TYPHIMURIUM, Strain/Indicator: TA97, Metabolic Activation: HAMSTER, LIVER, S-9, AROCLOR 1254 (10 OR 30%), Method: PREINCUBATION inactive; negative | Test System: AMES SALMONELLA TYPHIMURIUM, Strain/Indicator: TA97, Metabolic Activation: NONE, Method: PREINCUBATION inactive; negative | Test System: AMES SALMONELLA TYPHIMURIUM, Strain/Indicator: TA97, Metabolic Activation: RAT, LIVER, S-9, AROCLOR 1254 (10 OR 30%), Method: PREINCUBATION inactive; negative | Test System: AMES SALMONELLA TYPHIMURIUM, Strain/Indicator: TA98, Metabolic Activation: HAMSTER, LIVER, S-9, AROCLOR 1254 (10 OR 30%), Method: PREINCUBATION inactive; negative | [5] inactive; negative | [1] inactive; negative | Test System: AMES SALMONELLA TYPHIMURIUM, Strain/Indicator: TA98, Metabolic Activation: RAT LIVER S-9, AROCLOR 1254, 10%, Method: STANDARD PLATE inactive; negative | Test System: AMES SALMONELLA TYPHIMURIUM, Strain/Indicator: TA98, Metabolic Activation: RAT, LIVER, S-9, AROCLOR 1254 (10 OR 30%), Method: PREINCUBATION inactive; negative | Test System: AMES SALMONELLA TYPHIMURIUM, Strain/Indicator: TA100, Metabolic Activation: HAMSTER, LIVER, S-9, AROCLOR 1254 (10 OR 30%), Method: PREINCUBATION inactive; negative | [6] inactive; negative | [2] inactive; negative | Test System: AMES SALMONELLA TYPHIMURIUM, Strain/Indicator: TA100, Metabolic Activation: RAT LIVER S-9, AROCLOR 1254, 10%, Method: STANDARD PLATE inactive; negative | Test System: AMES SALMONELLA TYPHIMURIUM, Strain/Indicator: TA100, Metabolic Activation: RAT, LIVER, S-9, AROCLOR 1254 (10 OR 30%), Method: PREINCUBATION inactive; negative | Test System: AMES SALMONELLA TYPHIMURIUM, Strain/Indicator: TA1535, Metabolic Activation: HAMSTER, LIVER, S-9, AROCLOR 1254 (10 OR 30%), Method: PREINCUBATION inactive; negative | [7] inactive; negative | [3] inactive; negative | Test System: AMES SALMONELLA TYPHIMURIUM, Strain/Indicator: TA1535, Metabolic Activation: RAT LIVER S-9, AROCLOR 1254, 10%, Method: STANDARD PLATE inactive; negative | Test System: AMES SALMONELLA TYPHIMURIUM, Strain/Indicator: TA1535, Metabolic Activation: RAT, LIVER, S-9, AROCLOR 1254 (10 OR 30%), Method: PREINCUBATION inactive; negative | [4] inactive; negative | Test System: AMES SALMONELLA TYPHIMURIUM, Strain/Indicator: TA1537, Metabolic Activation: RAT LIVER S-9, AROCLOR 1254, 10%, Method: STANDARD PLATE inactive; negative | Test System: ESCHERICHIA COLI, Strain/Indicator: WP2 UVRA, Metabolic Activation: NONE, Method: STANDARD PLATE inactive; negative | Test System: ESCHERICHIA COLI, Strain/Indicator: WP2 UVRA, Metabolic Activation: RAT LIVER S-9, AROCLOR 1254, 10%, Method: STANDARD/PLATE inactive; negative | Test System: MOUSE LYMPHOMA, Strain/Indicator: L5178Y (TK+/TK-), Metabolic Activation: NONE, Method: SUSPENSION PLATE inactive; negative | Test System: MOUSE LYMPHOMA, Strain/Indicator: L5178Y (TK+/TK-), Metabolic Activation: RAT LIVER S-9, AROCLOR 1254, 3%, NADP, ISOCITRATE, Method: SUSPENSION/PLATE inactive; negative

CN(C)CCN(Cc1ccccc1)c1ccccc1
inactive: [8] inactive; negative | [5] inactive; negative | [9] inactive; negative | [10] inactive; negative | [6] inactive; negative | [11] inactive; negative | [12] inactive; negative | [7] inactive; negative | [13] inactive; negative | [14] inactive; negative | [15] inactive; negative | [16] inactive; negative

CCCCCC(N)=O
inactive: [8] inactive; negative | [5] inactive; negative | [9] inactive; negative | [10] inactive; negative | [6] inactive; negative | [11] inactive; negative | [12] inactive; negative | [7] inactive; negative | [13] inactive; negative | [14] inactive; negative | [15] inactive; negative | [16] inactive; negative
